# Results taken from US5045566A, “Novel imidate insecticides” (ICI Americas Inc., priority 1989, dated 1991).
# Legend:
# Assay type in all cases: in vivo
# [1] = tested on: Cabbage Looper [Trichoplusia ni (Hubner)]; experiment: Cabbage looper leaf dip (CL), 3-5 days; conditions: percent in solution, second-instar larvae
# Outline: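 Compounds in 50-50 acetone-water were applied by dipping squash cotyledons (about 1×1.5 in) for 2-3 s; dried leaves went into petri dishes on moist filter paper with 5 second-instar larvae under high humidity. Mortality was scored after 3-5 days; LC50 from dosage-mortality curves, as percent compound in solution.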
# [2] = tested on: Black Bean Aphid [Aphis fabae (Scop.)]; experiment: Black bean aphid spray test on nasturtium (BBA), 48 hours; conditions: percent of test compound in sprayed solution
# Procedure: The compounds in Tables 1 and 2 above were tested for insecticidal activity using the following testing procedures. LC50 values, based on the results of these tests and calculated according to dosage-mortality curves, are expressed in Table 3.
# Black Bean Aphid [Aphis fabae (Scop.)]:
# Nasturtium plants (Tropaeolum sp.) approximately 5 cm tall, were transplanted into sandy loam soil in small cups and infested with 25-50 black bean aphids of mixed ages. Twenty-four hours later they were sprayed to the point of runoff with 50-50 acetone-water solutions of the test compounds. Treated plants were held in the greenhouse and mortality was recorded after 48 hours. Test concentrations ranged from 0.05% downward. The LC-50 value is expressed below in Table 3 under the heading "BBA" in terms of percent of the test compound in the sprayed solution.
# [3] = tested on: Tobacco Budworm [Heliothis virescens (Fabricius)] eggs; experiment: Tobacco budworm eggs (TBW-E); conditions: percent in solution; 2-day old eggs
# Outline: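 Paper towel patches bearing 2-day old eggs were dipped in acetone solutions of compound, then set in petri dishes over larval rearing medium at 78° F. Mortality was scored once all control eggs had hatched and larvae were feeding. LC50, from dosage-mortality curves, is given as percent compound in solution.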
# [4] = tested on: Housefly [Musca domestica]; experiment: Housefly contact mortality in dishes (HF), 48 hours; conditions: μg of test compound per 25 female flies
# Outline: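 Acetone solutions (with 0.01% peanut oil) dried onto dish bottoms, then 25 female flies, 1-2 days old, caged over the residue with sugar water. Mortality scored at 48 hours; LC50 from dosage-mortality curves, in μg per 25 female flies, top level 100 μg.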
Structure (SMILES),LC50 CL [1],LC50 BBA [2],LC50 TBW E (eggs) [3],LC50 HF [4]
Cc1ccc(N=C(OCc2cccc(Oc3ccccc3)c2)C(C)C)cc1C [Compound 158],0.003%,0.0015%,0.1%,9 µg
CCOc1ccc(N=C(OCc2cccc(Oc3ccccc3)c2)C(C)(C)C)cc1 [Compound 164],0.005%,> 0.05%,> 0.1%,> 100 µg
CC(C)c1ccc(N=C(OCc2cccc(Oc3ccccc3)c2)C(C)(C)C)cc1 [Compound 165],0.007%,> 0.05%,> 0.1%,> 100 µg
CSc1cccc(N=C(OCc2cccc(Oc3ccccc3)c2)C(C)C)c1 [Compound 166],0.009%,0.001%,> 0.1%,22 µg
Cc1ccc(N=C(OCc2cccc(Oc3ccccc3)c2)C(C)(C)C)cc1C [Compound 167],0.02%,> 0.05%,> 0.1%,> 100 µg
CCOC(=O)c1cccc(N=C(OCc2cccc(Oc3ccccc3)c2)C(C)(C)C)c1 [Compound 168],0.1%,> 0.05%,> 0.1%,> 100 µg
COc1ccc(N=C(OCc2cccc(Oc3ccccc3)c2)C(C)C)cc1OC [Compound 169],0.009%,0.003%,> 0.1%,10 µg
CC(C)(C)C(=Nc1cccc([N+](=O)[O-])c1)OCc1cccc(Oc2ccccc2)c1 [Compound 175],0.018%,> 0.05%,> 0.1%,> 100 µg
CC(C)C(=Nc1ccc(F)cc1)OCc1cccc(Oc2cccc(Cl)c2)c1 [Compound 205],0.004%,0.03%,> 0.1%,50 µg
CC(C)C(=Nc1ccc(F)cc1)OCc1cccc(Oc2ccc(F)cc2F)c1 [Compound 206],0.0017%,0.03%,> 0.1%,50 µg
CC(C)C(=Nc1ccc(C#N)cc1)OCc1cccc(Oc2cccc(Cl)c2)c1 [Compound 208],0.0035%,0.05%,> 0.1%,27 µg
CCC(C)C(=Nc1ccc(Cl)c(Cl)c1)OCc1cccc(Oc2ccc(F)cc2)c1 (stereo not shown) [Compound 211],0.0017%,0.01%,> 0.1%,61 µg
CC(C)C(=Nc1ccc(F)c(F)c1)OCc1cccc(Oc2ccc(C#N)cc2)c1 [Compound 212],0.0005%,0.05%,0.045%,20 µg
CC(C)C(=Nc1ccc(Cl)c(Cl)c1)OCc1cccc(Oc2ccc(F)cc2F)c1 [Compound 213],0.00075%,0.01%,> 0.1%,> 100 µg
CC(C)C(=Nc1ccc(F)c(F)c1)OCc1cccc(Oc2ccc(F)cc2F)c1 [Compound 214],0.0003%,0.01%,0.04%,19 µg
CC(C)C(=Nc1ccc(F)c(Cl)c1)OCc1cccc(Oc2cc(F)cc(F)c2)c1 [Compound 215],0.00075%,0.05%,> 0.1%,75 µg
CC(C)C(=Nc1ccc(Cl)c(Cl)c1)OCc1cccc(Oc2ccc(F)c(F)c2)c1 [Compound 218],0.0003%,0.003%,0.025%,25 µg
COc1ccc(Oc2cccc(COC(=Nc3ccc(F)cc3)C(C)C)c2)cc1 [Compound 220],0.007%,0.03%,> 0.1%,85 µg
COc1ccc(Oc2cccc(COC(=Nc3ccc(F)c(Cl)c3)C(C)C)c2)cc1 [Compound 221],0.0027%,0.01%,> 0.1%,62 µg
CC(C)C(=Nc1ccc(C#N)c(F)c1)OCc1cccc(Oc2ccc(F)cc2)c1 [Compound 222],0.0015%,0.01%,> 0.1%,32 µg

Structure (SMILES),LC50 CL [1],LC50 BBA [2],LC50 TBW E (eggs) [3],LC50 HF [4]
COc1ccc(Oc2cccc(COC(=Nc3ccc(Cl)c(Cl)c3)C(C)C)c2)cc1 [Compound 223],0.008%,0.003%,> 0.1%,43 µg
CC(C)(Cl)C(=Nc1ccc(F)c(Cl)c1)OCc1cccc(Oc2ccc(F)cc2)c1 [Compound 224],0.001%,0.05%,> 0.1%,> 100 µg
CC(C)C(=Nc1ccc(C#N)cc1)OCc1cccc(Oc2ccc(F)cc2)c1 [Compound 227],0.0015%,0.01%,0.1%,10 µg
CC(C)C(=Nc1cccc(Br)c1)OCc1cccc(Oc2ccc(F)cc2)c1 [Compound 229],0.0005%,0.006%,> 0.1%,20 µg
Cc1ccc(Oc2cccc(COC(=Nc3ccc(F)cc3)C(C)C)c2)cc1 [Compound 231],0.003%,0.01%,> 0.1%,> 100 µg
CC(C)C(=Nc1c(F)c(F)c(F)c(F)c1F)OCc1cccc(Oc2ccc(F)cc2F)c1 [Compound 232],0.004%,> 0.05%,> 0.1%,> 100 µg
CC(C)C(=Nc1ccc(C#N)c(F)c1)OCc1cccc(Oc2ccccc2)c1 [Compound 233],0.0017%,0.01%,0.09%,10 µg
CC(C)C(=Nc1ccc(C(C)(C)C)cc1)OCc1cccc(Oc2ccc(F)cc2)c1 [Compound 235],0.004%,0.01%,> 0.1%,> 100 µg
Cc1cc(N=C(OCc2cccc(Oc3ccc(F)cc3)c2)C(C)C)ccc1F [Compound 236],0.0018%,0.003%,0.06%,7 µg
CC(C)C(=Nc1ccc(Cl)cc1)OCc1cccc(Oc2ccc(Br)cc2)c1 [Compound 237],0.0006%,0.01%,0.075%,50 µg
CC(C)C(=Nc1ccc2c(c1)OC(C)(C)O2)OCc1cccc(Oc2ccc(Cl)cc2)c1 [Compound 241],0.0004%,< 0.05%,> 0.1%,> 100 µg
CC(C)C(=Nc1ccc2c(c1)CCO2)OCc1cccc(Oc2ccccc2)c1 [Compound 243],0.005%,0.01%,> 0.1%,9 µg
CC(C)C(=Nc1ccc2c(c1)OCO2)OCc1cccc(Oc2ccc(C(F)(F)F)cc2)c1 [Compound 246],0.004%,> 0.05%,> 0.1%,60 µg
CC(C)C(=Nc1ccc(F)c(Cl)c1)OCc1cccc(Oc2ccc(C(F)(F)F)cc2)c1 [Compound 247],0.009%,> 0.05%,> 0.1%,> 100 µg
COc1cc(N=C(OCc2cccc(Oc3ccccc3)c2)C(C)C)cc(OC)c1OC [Compound 248],0.02%,> 0.05%,> 0.1%,40 µg
Cc1cccc(N=C(OCc2cccc(Oc3ccccc3)c2)C(C)C)c1C [Compound 249],0.0025%,0.0003%,0.035%,36 µg
Cc1ccc(C)c(N=C(OCc2cccc(Oc3ccccc3)c2)C(C)C)c1 [Compound 250],0.004%,0.0006%,0.038%,38 µg
CC(C)C(=Nc1ccc(Br)c(Br)c1)OCc1cccc(Oc2ccc(F)cc2)c1 [Compound 251],0.0005%,0.001%,0.06%,25 µg
CC(C)C(=Nc1ccc(Br)c(Br)c1)OCc1cccc(Oc2ccccc2)c1 [Compound 252],0.0035%,0.002%,0.04%,34 µg
CC(C)C(=Nc1cccc(Cl)c1)OCc1cccc(Oc2ccc(Br)cc2)c1 [Compound 260],0.00075%,0.006%,> 0.1%,22 µg
